According to patent publication US20250257034A1, “INDOLE DERIVATIVES AS SEROTONERGIC AGENTS USEFUL FOR THE TREATMENT OF DISORDERS RELATED THERETO” (priority 2023, published 2025):

Assays:
Type in all cases: cell-based
5-HT2B receptor [1] = biological target: T1, 5-HT2B receptor (Homo sapiens, UniProt P41595); assay: h-5HT2B FLIPR calcium mobilization assay in HEK293 cells; set-up: expressed in transfected cells; host or cells: HEK293, stably transfected
Experimental: Compound potency (EC50) and efficacy (Max response) against the human 5-HT2B receptor in stably transfected HEK293 cells was determined in a calcium mobilization-based assay.
Cells were seeded in a total volume of 20 μL into white walled, 384-well microplates and incubated at 37° C. overnight. Prior to testing, cell plating media was exchanged with 20 μL of Dye Loading buffer (HBSS+20 mM HEPES containing 1×Dye, 1×Additive A and 2.5 mM Probenecid). Plates were incubated at 37° C. for 45 mins followed by 15 mins at room temperature.
10 μl of assay buffer (HBSS+20 mM HEPES) was added to cells. Intermediate dilution of sample stocks was performed to generate 4×sample in assay buffer. Assay plates, compound plates were loaded into F LIP R instrument. 10 μL of sample was added using F LIP R onboard robotics after 5 seconds of starting calcium measurement. Final assay vehicle concentration was 1%. The results are expressed as a percent efficacy relative to the maximum response of the control ligand (serotonin) in Table 28.
10 μl of assay buffer (HBSS+20 mM HEPES) was added to cells. Intermediate dilution of sample stocks was performed to generate 4×sample in assay buffer. Assay plates, compound plates were loaded into F LIP R instrument. 10 μL of sample was added using F LIP R onboard robotics after 5 seconds of starting calcium measurement. Final assay vehicle concentration was 1%. The results are expressed as a percent efficacy relative to the maximum response of the control ligand (serotonin) in Table 57.

human 5-HT1A receptor = biological target: T2, human 5-HT1A receptor (Homo sapiens, UniProt P08908); assay: Human 5HT1A cAMP assay in CHO-K1 cells; set-up: expressed in transfected cells
T2 sequence (P08908 1-422): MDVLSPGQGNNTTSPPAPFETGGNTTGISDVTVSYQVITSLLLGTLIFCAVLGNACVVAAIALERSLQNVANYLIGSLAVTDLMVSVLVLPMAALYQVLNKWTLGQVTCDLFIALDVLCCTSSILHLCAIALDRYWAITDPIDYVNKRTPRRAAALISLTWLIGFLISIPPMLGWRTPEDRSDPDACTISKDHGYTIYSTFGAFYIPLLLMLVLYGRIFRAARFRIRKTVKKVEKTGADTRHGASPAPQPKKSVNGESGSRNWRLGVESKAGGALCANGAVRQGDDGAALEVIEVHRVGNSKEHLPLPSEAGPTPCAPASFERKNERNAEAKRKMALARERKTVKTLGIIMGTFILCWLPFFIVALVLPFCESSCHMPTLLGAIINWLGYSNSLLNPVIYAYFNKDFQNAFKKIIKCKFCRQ
Experimental: Compound potency (EC50) and efficacy (Max response) against the human 5-HT1A receptor in stably transfected CHO-K1 cells was determined in a GPCR cell-based cAMP assay.
Cells were seeded in a total volume of 20 μL into white walled, 384-well microplates and incubated at 37° C. overnight before analysis. Prior to testing, cell plating media was exchanged with 10 μL of Assay buffer (HBSS+10 mM HE P E S). Briefly, intermediate dilution of sample stocks was performed to generate 4×sample in assay buffer. 5 μL of 4×sample+5 μL of 4×forskolin was added to cells and incubated at 37° C. for 30 minutes. Final assay vehicle concentration was 1%. The results are expressed as a percent efficacy relative to the maximum response of the control ligand (serotonin) in Table 27.
Cells were seeded in a total volume of 20 μL into white walled, 384-well microplates and incubated at 37° C. overnight before analysis. Prior to testing, cell plating media was exchanged with 10 μL of Assay buffer (HBSS+10 mM HEPES). Briefly, intermediate dilution of sample stocks was performed to generate 4×sample in assay buffer. 5 μL of 4×sample +5 μL of 4×forskolin was added to cells and incubated at 37° C. for 30 minutes. Final assay vehicle concentration was 1%. The results are expressed as a percent efficacy relative to the maximum response of the control ligand (serotonin) in Table 56.

5-HT2B receptor [2] = biological target: T1, 5-HT2B receptor; assay: h-5HT2B positive allosteric modulator (PAM) assay in HEK293 cells; set-up: expressed in transfected cells; host or cells: HEK293, stably transfected; settings: for Emax (% of serotonin): PAM mode
Experimental: Compound potency (EC50) and efficacy (Max response) against the human 5-HT2B receptor in stably transfected HEK293 cells was determined in a GPC R cell-based assay.
For Positive Allosteric Modulator determination, cells were pre-incubated with sample followed by EC20 addition. Intermediate dilution of sample stocks was performed to generate 5×sample in assay buffer. 5 μL of 5×sample was added to cells and incubated at 37° C. for 10 minutes. 5 μL of agonist at 6×EC20 concentration was added and cells were incubated at 37° C. for 120 minutes. Final assay vehicle concentration was 1%. The results are expressed as a percent efficacy relative to the maximum response of the control ligand (serotonin) in Table 29.
For Positive Allosteric Modulator determination, cells were pre-incubated with sample followed by EC20 addition. Intermediate dilution of sample stocks was performed to generate 5×sample in assay buffer. 5 μL of 5×sample was added to cells and incubated at 37° C. for 10 minutes. 5 μL of agonist at 6×EC20 concentration was added and cells were incubated at 37° C. for 120 minutes. Final assay vehicle concentration was 1%. The results are expressed as a percent efficacy relative to the maximum response of the control ligand (serotonin) in Table 58.

[3] = relative to maximum response of serotonin (Table 56)
[4] = relative to maximum response of serotonin (Table 28)
[5] = relative to maximum response of serotonin (Table 27)
[6] = relative to maximum response of serotonin (Table 29)

T1 sequence (P41595 whole entry): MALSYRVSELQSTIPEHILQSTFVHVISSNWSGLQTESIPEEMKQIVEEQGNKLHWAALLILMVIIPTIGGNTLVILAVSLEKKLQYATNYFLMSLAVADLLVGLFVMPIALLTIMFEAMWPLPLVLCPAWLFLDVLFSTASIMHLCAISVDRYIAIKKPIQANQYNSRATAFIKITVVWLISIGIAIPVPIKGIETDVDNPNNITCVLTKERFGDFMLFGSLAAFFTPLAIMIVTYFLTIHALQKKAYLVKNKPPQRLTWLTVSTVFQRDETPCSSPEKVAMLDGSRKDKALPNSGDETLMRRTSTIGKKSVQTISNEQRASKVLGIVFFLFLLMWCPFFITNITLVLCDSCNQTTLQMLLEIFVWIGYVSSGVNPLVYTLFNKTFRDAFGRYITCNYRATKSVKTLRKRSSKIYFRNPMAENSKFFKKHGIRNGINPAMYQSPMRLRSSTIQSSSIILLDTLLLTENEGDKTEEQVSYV

SMILES	EC50 (5-HT2B receptor [1])	Emax (% of serotonin) (5-HT2B receptor [1]; relative to maximum response of serotonin (Table 57))	EC50 (human 5-HT1A receptor)	Emax (% of serotonin) (human 5-HT1A receptor; [3])	EC50 (5-HT2B receptor [2])	Emax (% of serotonin) (5-HT2B receptor [2]; HEK293 cells, relative to max response of serotonin)	Emax (% of serotonin) (5-HT2B receptor [1]; [4])	Emax (% of serotonin) (human 5-HT1A receptor; [5])	Emax (% of serotonin) (5-HT2B receptor [2]; [6])
COc1ccc2[nH]cc(CCN3CC[C@H](OC(F)F)C3)c2c1 [(S) I-67, (S)-3-(2-(3-(Difluoromethoxy)pyrrolidin-1-yl)ethyl)-5-methoxy-1H-indole]	> 10 µM	4.23 % of serotonin	0.0116 µM	98.47 % of serotonin	> 10 µM	0 % of serotonin	–	–	–
[2H]C([2H])([2H])N(CCc1c[nH]c2ccc(SC)cc12)C([2H])([2H])[2H] [Compound I-1, N,N-Bis(methyl-d3)-2-(5-(methylthio)-1H-indol-3-yl)ethan-1-amine]	> 10 µM	–	0.0111 µM	–	> 10 µM	–	19.8 % of serotonin	96.18 % of serotonin	0 % of serotonin
CCN(C)CCc1c[nH]c2ccc(SC)cc12 [Compound I-13, N-Ethyl-N-methyl-2-(5-(methylthio)-1H-indol-3-yl)ethan-1-amine]	> 10 µM	–	0.00906 µM	–	> 10 µM	–	21.04 % of serotonin	100.52 % of serotonin	0 % of serotonin
CN(C)CCc1c[nH]c2ccccc12 [DMT]	–	–	–	87.1 % of serotonin	–	–	–	87.1 % of serotonin	–
